Test results reported in patent US20170232083A1, “METHODS OF DIAGNOSIS AND TREATMENT OF CELIAC DISEASE IN CHILDREN” (priority 2014, published 2017).
Values joined by “and” are separate entries in the source; they are usually repeats but may differ in a detail not shown here. Equal entries are not always repeated. Non-standard residues stand in square brackets, D forms with d. pGlu = O=C1CC[C@@H](C(=O)O)N1

Tested on: peripheral blood mononuclear cells obtained from children
Experiment: IFNγ ELISpot PBMC assay after oral wheat bread challenge (Examples 1-2)
Assay type: cell-based, human
Procedure: An oral wheat bread challenge was conducted in DQ2.5+ children and adolescents having Celiac disease. The age ranges were 3-5, 6-10 and 11-18 years of age. An ELISpot peripheral blood mononucleated cell (PBMC) assay was performed to measure the level of IFNγ released by the PBMCs after being contacted with peptide 1, peptide 2, peptide 3, or a combination thereof. The identities of peptides 1, 2, and 3 are shown below.
The values the rows starting from “Blank (SFU)” and ending at “Pept-1/2/3 (150)” are all spot forming unit (SFU) values. The values in the parentheses in the first column are the concentration of each peptide in micrograms that were added to the PBMCs (e.g., Pept-1 50=50 micrograms of Peptide 1, Pept-1/2/3 50=50 micrograms of each of Peptide 1, Peptide 2, and Peptide 3). Pept-1=Peptide 1, Pept-2=Peptide 2, Pept-3=Peptide 3, the amino acid identities of which are mentioned above. D-Gli=deamidated gliadin. WT-Gli=wild-type gliadin. D-Glut=deamidated gluten. WT-Glut=wild-type gluten.
IFNγ ELISpot responses in 9 older children (11-17 yo) and 6 younger children (3-10 yo) were stimulated by the mixture of peptides 1, 2, and 3 described in Example 1 (each peptide at a concentration of 25 ug/mL) or stimulated by deamidated gliadin (100 ug/mL) after 3-day wheat challenge (r2=0.8, p<0.0001). The ELISpot responses were similar using either the peptide mixture of the deamidated gliadin (FIG. 1).

“EQPFPQPEQPFPWQP ([pGlu]QPFPQPEQPFPWQP-NH2; SMILES NC(=O)CC[C@H](NC(=O)[C@H](Cc1c[nH]c2ccccc12)NC(=O)[C@@H]1CCCN1C(=O)[C@H](Cc1ccccc1)NC(=O)[C@@H]1CCCN1C(=O)[C@H](CCC(N)=O)NC(=O)[C@H](CCC(=O)O)NC(=O)[C@@H]1CCCN1C(=O)[C@H](CCC(N)=O)NC(=O)[C@@H]1CCCN1C(=O)[C@H](Cc1ccccc1)NC(=O)[C@@H]1CCCN1C(=O)[C@H](CCC(N)=O)NC(=O)[C@@H]1CCC(=O)N1)C(=O)N1CCC[C@H]1C(N)=O) [Peptide 2]” was tested, and the “most active peptides in gliadin for children” value was “most active”, the “SFU, IFNγ ELISpot” value (Subject A, 5.0 × 10^5 cells per well, 50 micrograms, listed as Pept-2) was 4 SFU and 3 SFU and the “SFU, IFNγ ELISpot” value (Subject A, 5.0 × 10^5 cells per well, 100 micrograms, listed as Pept-2) was 5 SFU and 3 SFU. For the same sequence, the “SFU, IFNγ ELISpot” value (Subject B, 5.0 × 10^5 cells per well, 25 micrograms, listed as Pept-2) was 4 SFU and 6 SFU, the “SFU, IFNγ ELISpot” value (Subject B, 5.0 × 10^5 cells per well, 50 micrograms, listed as Pept-2) was 7 SFU and 8 SFU and the “SFU, IFNγ ELISpot” value (Subject C, 5.0 × 10^5 cells per well, 50 micrograms) was 4 SFU. For the same sequence, the “SFU, IFNγ ELISpot” value (Subject D, 4.0 × 10^5 cells per well, 25 micrograms, listed as Pept-2) was 17 SFU and 30 SFU, the “SFU, IFNγ ELISpot” value (Subject D, 4.0 × 10^5 cells per well, 50 micrograms, listed as Pept-2) was 29 SFU and 32 SFU and the “SFU, IFNγ ELISpot” value (Subject E, 5.0 × 10^5 cells per well, 25 micrograms, listed as Pept-2) was 55 SFU and 45 SFU. The “SFU, IFNγ ELISpot” value (Subject E, 5.0 × 10^5 cells per well, 50 micrograms, listed as Pept-2) was 45 SFU and 43 SFU, the “SFU, IFNγ ELISpot” value (Subject E, 5.0 × 10^5 cells per well, 100 micrograms, listed as Pept-2) was 67 SFU and 44 SFU and the “SFU, IFNγ ELISpot” value (Subject F, 5.0 × 10^5 cells per well, 25 micrograms, listed as Pept-2) was 44 SFU and 59 SFU. For the same sequence, the “SFU, IFNγ ELISpot” value (Subject F, 5.0 × 10^5 cells per well, 50 micrograms, listed as Pept-2) was 64 SFU and 105 SFU, the “SFU, IFNγ ELISpot” value (Subject F, 5.0 × 10^5 cells per well, 100 micrograms, listed as Pept-2) was 41 SFU and 59 SFU and the “SFU, IFNγ ELISpot” value (Subject G, 4.0 × 10^5 cells per well, 25 micrograms) was 7 SFU. For the same sequence, the “SFU, IFNγ ELISpot” value (Subject G, 4.0 × 10^5 cells per well, 100 micrograms, listed as Pept-2) was 5 SFU and 9 SFU, the “SFU, IFNγ ELISpot” value (Subject I, 5.0 × 10^5 cells per well, 25 micrograms) was 7 SFU and the “SFU, IFNγ ELISpot” value (Subject I, 5.0 × 10^5 cells per well, 50 micrograms, listed as Pept-2) was 5 SFU and 6 SFU. The “SFU, IFNγ ELISpot” value (Subject J, 5.0 × 10^5 cells per well, 25 micrograms, listed as Pept-2) was 85 SFU and 98 SFU, the “SFU, IFNγ ELISpot” value (Subject J, 5.0 × 10^5 cells per well, 50 micrograms, listed as Pept-2) was 107 SFU and 83 SFU and the “SFU, IFNγ ELISpot” value (Subject J, 5.0 × 10^5 cells per well, 100 micrograms, listed as Pept-2) was 81 SFU and 90 SFU. For the same sequence, the “SFU, IFNγ ELISpot” value (Subject K, 3.2 × 10^5 cells per well, 25 micrograms, listed as Pept-2) was 17 SFU and 22 SFU, the “SFU, IFNγ ELISpot” value (Subject K, 3.2 × 10^5 cells per well, 50 micrograms, listed as Pept-2) was 19 SFU and 18 SFU and the “SFU, IFNγ ELISpot” value (Subject K, 3.2 × 10^5 cells per well, 100 micrograms, listed as Pept-2) was 23 SFU and 15 SFU. For the same sequence, the “SFU, IFNγ ELISpot” value (Subject L, 3.5 × 10^5 cells per well, 25 micrograms, listed as Pept-2) was 5 SFU and 4 SFU, the “SFU, IFNγ ELISpot” value (Subject L, 3.5 × 10^5 cells per well, 100 micrograms, listed as Pept-2) was 2 SFU and 4 SFU and the “SFU, IFNγ ELISpot” value (Subject M, 2.3 × 10^5 cells per well, 25 micrograms, listed as Pept-2) was 28 SFU and 27 SFU. The “SFU, IFNγ ELISpot” value (Subject M, 2.3 × 10^5 cells per well, 50 micrograms, listed as Pept-2) was 26 SFU and 29 SFU, the “SFU, IFNγ ELISpot” value (Subject M, 2.3 × 10^5 cells per well, 100 micrograms, listed as Pept-2) was 32 SFU and 24 SFU and the “SFU, IFNγ ELISpot” value (Subject N, 2.4 × 10^5 cells per well, 100 micrograms, listed as Pept-2) was 4 SFU and 7 SFU. For the same sequence, the “SFU, IFNγ ELISpot” value (Subject P, 3.0 × 10^5 cells per well, 0.5 micrograms, listed as Pept-2) was 10 SFU and 8 SFU, the “SFU, IFNγ ELISpot” value (Subject P, 3.0 × 10^5 cells per well, 1 micrograms, listed as Pept-2) was 18 SFU and 11 SFU and the “SFU, IFNγ ELISpot” value (Subject P, 3.0 × 10^5 cells per well, 5 micrograms, listed as Pept-2) was 19 SFU and 15 SFU. For the same sequence, the “SFU, IFNγ ELISpot” value (Subject Q, 3.0 × 10^5 cells per well, 0.5 micrograms, listed as Pept-2) was 44 SFU and 51 SFU, the “SFU, IFNγ ELISpot” value (Subject Q, 3.0 × 10^5 cells per well, 1 micrograms, listed as Pept-2) was 31 SFU and 41 SFU and the “SFU, IFNγ ELISpot” value (Subject Q, 3.0 × 10^5 cells per well, 2.5 micrograms, listed as Pept-2) was 44 SFU and 51 SFU. For the same sequence, the “SFU, IFNγ ELISpot” value (Subject Q, 3.0 × 10^5 cells per well, 5 micrograms, listed as Pept-2) was 30 SFU, the “SFU, IFNγ ELISpot” value (Subject R, 3.0 × 10^5 cells per well, 0.1 micrograms, listed as Pept-2) was 18 SFU and 20 SFU and the “SFU, IFNγ ELISpot” value (Subject R, 3.0 × 10^5 cells per well, 0.5 micrograms, listed as Pept-2) was 16 SFU and 14 SFU. The “SFU, IFNγ ELISpot” value (Subject R, 3.0 × 10^5 cells per well, 1 micrograms, listed as Pept-2) was 15 SFU and 11 SFU, the “SFU, IFNγ ELISpot” value (Subject R, 3.0 × 10^5 cells per well, 5 micrograms, listed as Pept-2) was 16 SFU and the “SFU, IFNγ ELISpot” value (Subject S, 3.0 × 10^5 cells per well, 0.5 micrograms, listed as Pept-2) was 2 SFU and 1 SFU. For the same sequence, the “SFU, IFNγ ELISpot” value (Subject S, 3.0 × 10^5 cells per well, 1 micrograms, listed as Pept-2) was 5 SFU and 3 SFU, the “SFU, IFNγ ELISpot” value (Subject S, 3.0 × 10^5 cells per well, 2.5 micrograms, listed as Pept-2) was 2 SFU and 3 SFU and the “SFU, IFNγ ELISpot” value (Subject S, 3.0 × 10^5 cells per well, 5 micrograms, listed as Pept-2) was 5 SFU. For the same sequence, the “SFU, IFNγ ELISpot” value (Subject T, 3.0 × 10^5 cells per well, 0.1 micrograms, listed as Pept-2) was 33 SFU and 47 SFU, the “SFU, IFNγ ELISpot” value (Subject T, 3.0 × 10^5 cells per well, 0.5 micrograms, listed as Pept-2) was 34 SFU and 39 SFU and the “SFU, IFNγ ELISpot” value (Subject T, 3.0 × 10^5 cells per well, 1 micrograms, listed as Pept-2) was 41 SFU and 51 SFU. For the same sequence, the “SFU, IFNγ ELISpot” value (Subject T, 3.0 × 10^5 cells per well, 2.5 micrograms, listed as Pept-2) was 49 SFU and 56 SFU, the “SFU, IFNγ ELISpot” value (Subject T, 3.0 × 10^5 cells per well, 5 micrograms, listed as Pept-2) was 68 SFU and the “SFU, IFNγ ELISpot” value (Subject U, 3.0 × 10^5 cells per well, 0.1 micrograms, listed as Pept-2) was 8 SFU and 6 SFU. The “SFU, IFNγ ELISpot” value (Subject U, 3.0 × 10^5 cells per well, 0.5 micrograms, listed as Pept-2) was 8 SFU and 12 SFU, the “SFU, IFNγ ELISpot” value (Subject U, 3.0 × 10^5 cells per well, 1 micrograms, listed as Pept-2) was 13 SFU and 15 SFU and the “SFU, IFNγ ELISpot” value (Subject U, 3.0 × 10^5 cells per well, 2.5 micrograms, listed as Pept-2) was 26 SFU and 33 SFU. The “SFU, IFNγ ELISpot” value (Subject U, 3.0 × 10^5 cells per well, 5 micrograms, listed as Pept-2) was 28 SFU and the “T cell response in PBMC samples from children after gluten challenge” value (general increase in SFU in each child, Tables 2-5) was “induce a T cell response”.
